Laboratory results reported in patent US5508437A, “Analogs of tyrosine sulfate or tyrosine phosphate containing peptides” (Hoffmann-La Roche Inc., priority 1993, dated 1996).
Read-outs that look alike come from different tables or passages of the source. Starred links: 1 amine or outer side, 2 acyl side, 3 side chain; linkers in the order of their positions; H or OH if unused. Positions of bridges follow the written chain, without caps; N, C: chain ends. Non-standard residues stand in square brackets, D forms with d. Residues, ends and D or L forms follow the SMILES beside them. ξ: configuration not given here. *: point of attachment. Phe(4-tetrazol-5-yl) = N[C@@H](Cc1ccc(-c2nnn[nH]2)cc1)C(=O)O; Propanoyl(3-(4-HOOCCH2-Ph)) = O=C(O)Cc1ccc(CCC(=O)*)cc1; X15 = O=C([C@@H](Cc1ccc(-c2nn[nH]n2)cc1)N[*:1])[*:2]; X13 = O=C(O)C(F)(F)c1ccc(CC(N[*:1])C(=O)[*:2])cc1; X3 = CCOC(=O)Cc1ccc(C[C@@H](N[*:1])C(=O)[*:2])cc1; X5 = CCOC(=O)Cc1ccc(C[C@H](N[*:1])C(=O)[*:2])cc1; X7 = O=C(C(Cc1ccc(-c2nn[nH]n2)cc1)N[*:1])[*:2]; X8 = O=C(C(Cc1ccc(Cc2nn[nH]n2)cc1)N[*:1])[*:2]; X12 = O=C(O)Cc1cccc(CC(N[*:1])C(=O)[*:2])c1; X1 = O=C(O)Cc1ccc(CC(N[*:1])C(=O)[*:2])cc1; X14 = O=C(O)c1cccc(CC(N[*:1])C(=O)[*:2])c1; ξPhe(4-COOH) = NC(Cc1ccc(C(=O)O)cc1)C(=O)O; X16 = O=C(CCc1ccc(-c2nnn[nH]2)cc1)*; NMeF = CN[C@@H](Cc1ccccc1)C(=O)O; Nle = CCCC[C@H](N)C(=O)O

How the values were obtained:
[1] = target: T1, rat pancreas (3H-CCK-8-(SO3 H) receptor binding) (Rattus norvegicus, UniProt P30551); assay: In vitro receptor binding assay, 3H-CCK-8-(SO3H), rat pancreas homogenate
T1 construct: pancreas approximately 0.100 mg protein in 1 mL final volume; from tissue; host or cells: rat pancreas membrane homogenate
T1 sequence (P30551 1-444): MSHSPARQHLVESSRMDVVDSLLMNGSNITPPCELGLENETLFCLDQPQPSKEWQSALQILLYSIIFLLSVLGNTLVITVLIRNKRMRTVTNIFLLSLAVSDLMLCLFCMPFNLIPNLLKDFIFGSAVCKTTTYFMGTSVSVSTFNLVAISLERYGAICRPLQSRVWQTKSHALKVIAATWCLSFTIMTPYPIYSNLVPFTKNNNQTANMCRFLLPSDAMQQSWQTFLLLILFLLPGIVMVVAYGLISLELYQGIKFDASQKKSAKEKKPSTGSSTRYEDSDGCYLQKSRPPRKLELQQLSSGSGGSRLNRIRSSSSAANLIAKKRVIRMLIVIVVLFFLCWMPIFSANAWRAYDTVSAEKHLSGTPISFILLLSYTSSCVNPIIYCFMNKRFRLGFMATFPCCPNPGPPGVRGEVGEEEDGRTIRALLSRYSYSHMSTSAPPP
Method: (§1) Frozen bovine striatum (approx. 5 g) or fresh rat pancreas (approx. 5 g) cleaned of fat and extraneous tissue were homogenized in HEPES buffer #1 (10 mM HEPES+130 mM NaCl+5 mM MgCl2, pH 7.4) using 35 parts buffer per 1 part tissue on a wet weight/volume basis (approx. 175 mL). The tissue was homogenized 2×for approx. 15 sec. at 0° C. using a Polytron homogenizer at a setting of 6. The tissue was isolated by centrifugation at 48,000× g for 10 min at 0° C. The resulting tissue pellet was resuspended in HEPES buffer #2 (10 mM HEPES+130 mM NaCl+5 mM MgCl2 +1 mg/L phenylmethanasulfonyl fluoride (PMSF)+200 mg/L Bacitracin): 1 part striatal tissue (original wet weight) per 80 parts buffer and 1 part pancreas tissue (original wet weight) per 500 to 1000 parts buffer.
(§2) Incubation was initiated by combining various concentrations of native CCK-8 or peptides of the invention with ^3 H-CCK-8-(SO3 H) (final conc.=0.15 nM) and tissue homogenate (striatum approximately 0.26 mg protein in 2 mL final volume; pancreas approximately 0.100 mg protein in 1 mL final volume). Samples were incubated for 30 min at 25° C. and the incubation terminated by pouring the mixture onto a pre-wetted Whatman GF/B filter on a Sandbeck Vacuum Filtration Manifold. The incubation tubes were washed with 2×3 mL of ice-cold HEPES Buffer #2 and the wash filtered through the GF/B filter. The filter was air dried for 10 min and then placed in a scintillation vial with 12 mL of DuPont/NEN Aquasol scintillation cocktail. The vials were shaken overnight and then counted using a liquid scintillation spectrometer. Non-specific binding was determined in the presence of 1 micromolar native CCK-8 and subtracted from all samples to determine specific binding. The concentration of peptide necessary to inhibit 50% of total specific H-CCK-8-(SO3 H) binding (IC50 value) was determined by log-probit analysis.

[2] = target: T2, Bovine Striatum (3H-CCK-8-(SO3 H) receptor binding) (Bos taurus, UniProt P79266); assay: In vitro receptor binding assay, 3H-CCK-8-(SO3H), bovine striatum homogenate
T2 construct: tissue homogenate (striatum approximately 0.26 mg protein in 2 mL final volume); from tissue; host or cells: bovine striatum membrane homogenate
T2 sequence (P79266 1-454): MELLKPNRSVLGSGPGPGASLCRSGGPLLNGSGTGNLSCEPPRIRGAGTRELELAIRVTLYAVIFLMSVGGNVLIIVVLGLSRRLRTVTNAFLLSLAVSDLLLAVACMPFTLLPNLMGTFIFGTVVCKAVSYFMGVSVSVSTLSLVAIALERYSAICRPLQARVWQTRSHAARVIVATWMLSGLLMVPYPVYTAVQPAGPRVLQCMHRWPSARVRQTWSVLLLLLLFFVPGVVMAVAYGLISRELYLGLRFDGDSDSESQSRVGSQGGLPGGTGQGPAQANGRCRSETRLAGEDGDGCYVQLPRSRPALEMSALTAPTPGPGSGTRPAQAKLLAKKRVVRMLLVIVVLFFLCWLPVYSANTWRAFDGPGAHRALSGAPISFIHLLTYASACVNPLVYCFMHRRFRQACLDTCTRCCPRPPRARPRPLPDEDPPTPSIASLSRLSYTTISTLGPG
Method: as §1, §2

[3] = 3H-CCK-8-(SO3H) 0.15 nM, 30 min at 25° C., rat pancreas homogenate, read-out: Rate Pancreas IC50 (concentration to inhibit 50% of specific 3H-CCK-8-(SO3H) binding)
[4] = 3H-CCK-8-(SO3H) 0.15 nM, 30 min at 25° C., bovine striatum homogenate, read-out: Bovine Striatum IC50 (concentration to inhibit 50% of specific 3H-CCK-8-(SO3H) binding)

SMILES | IC50 [1, 3] [nM] | IC50 [2, 4] [nM] | IC50 [1] [nM] | IC50 [2] [nM]
CSCC[C@H](NC(=O)[C@H](Cc1ccc(OS(=O)(=O)O)cc1)NC(=O)[C@@H](N)CC(=O)O)C(=O)NCC(=O)N[C@@H](Cc1c[nH]c2ccccc12)C(=O)N[C@@H](CCSC)C(=O)N[C@@H](CC(=O)O)C(=O)N[C@@H](Cc1ccccc1)C(N)=O [CCK-8, AspTyr(SO3 H)MetGlyTrpMetAspPheNH2, reference compound] | 1 to 4.6 | 1 to 3.2 |  | 
CSCC[C@H](NC(=O)C(Cc1cccc(C(=O)O)c1)NC(C)=O)C(=O)NCC(=O)N[C@@H](Cc1c[nH]c2ccccc12)C(=O)N[C@@H](CCSC)C(=O)N[C@@H](CC(=O)O)C(=O)N[C@@H](Cc1ccccc1)C(N)=O (stereo partly drawn) [Example 42, Ac-(D,L)Phe(3-COOH)-Met-Gly-Trp-Met-Asp-Phe-NH2] (Ac-[X14]MGWMDF-NH2) | 128 | 32 |  | 
CSCC[C@H](NC(=O)C(Cc1ccc(C(=O)O)cc1)NC(C)=O)C(=O)NCC(=O)N[C@@H](Cc1c[nH]c2ccccc12)C(=O)N[C@@H](CCSC)C(=O)N[C@@H](CC(=O)O)C(=O)N[C@@H](Cc1ccccc1)C(N)=O (stereo partly drawn) [Example 43, AC-(D,L)Phe(4-COOH)-Met-Gly-Trp-Met-Asp-Phe-NH2] (Ac-[ξPhe(4-COOH)]MGWMDF-NH2) | 62 | 34 |  | 
CSCC[C@H](NC(=O)C(Cc1ccc(CC(=O)O)cc1)NC(C)=O)C(=O)NCC(=O)N[C@@H](Cc1c[nH]c2ccccc12)C(=O)N[C@@H](CCSC)C(=O)N[C@@H](CC(=O)O)C(=O)N[C@@H](Cc1ccccc1)C(N)=O (stereo partly drawn) [Example 46, Ac-(D,L)Phe(4-CH2 COOH)-Met-Gly-Trp-Met-Asp-Phe-NH2] (Ac-[X1]MGWMDF-NH2) | 3.6 | 47 |  | 
CCOC(=O)Cc1ccc(C[C@@H](NC(C)=O)C(=O)N[C@@H](CCSC)C(=O)NCC(=O)N[C@@H](Cc2c[nH]c3ccccc23)C(=O)N[C@@H](CCSC)C(=O)N[C@@H](CC(=O)OCC)C(=O)N[C@@H](Cc2ccccc2)C(N)=O)cc1 [Example 49, Ac-(D)Phe(4-CH2 COOC2 H5)-Met-Gly-Trp-Met-Asp(COOC2H5)-Phe-NH2] (Ac-[X3]MGWMD(OEt)F-NH2) | 1000 | 10000 |  | 
CCOC(=O)Cc1ccc(C[C@H](NC(C)=O)C(=O)N[C@@H](CCSC)C(=O)NCC(=O)N[C@@H](Cc2c[nH]c3ccccc23)C(=O)N[C@@H](CCSC)C(=O)N[C@@H](CC(=O)OCC)C(=O)N[C@@H](Cc2ccccc2)C(N)=O)cc1 [Example 50, Ac-Phe(4-CH2 COOC2 H5)-Met-Gly-Trp-Met-Asp-(COOC2 H5)-Phe-NH2] (Ac-[X5]MGWMD(OEt)F-NH2) | 3600 | 10000 |  | 
CSCC[C@H](NC(=O)C(Cc1ccc(C(F)(F)C(=O)O)cc1)NC(C)=O)C(=O)NCC(=O)N[C@@H](Cc1c[nH]c2ccccc12)C(=O)N[C@@H](CCSC)C(=O)N[C@@H](CC(=O)O)C(=O)N[C@@H](Cc1ccccc1)C(N)=O (stereo partly drawn) [Example 52, Ac-(D,L)Phe(4-CF2 COOH)-Met-Gly-Trp-Met-Asp-Phe-NH2] (Ac-[X13]MGWMDF-NH2) |  |  | 81 | 66
CSCC[C@H](NC(=O)C(Cc1ccc(-c2nn[nH]n2)cc1)NC(C)=O)C(=O)NCC(=O)N[C@@H](Cc1c[nH]c2ccccc12)C(=O)N[C@@H](CCSC)C(=O)N[C@@H](CC(=O)O)C(=O)N[C@@H](Cc1ccccc1)C(N)=O (stereo partly drawn) [Example 53, Ac-(D,L)Phe(4-tetrazole)-Met-Gly-Trp-Met-Asp-Phe-NH2] (Ac-[X7]MGWMDF-NH2) | 22 | 1.6 |  | 
CSCC[C@H](NC(=O)[C@H](Cc1c[nH]c2ccccc12)NC(=O)CNC(=O)[C@H](CCSC)NC(=O)[C@@H](Cc1ccc(-c2nn[nH]n2)cc1)NC(C)=O)C(=O)N[C@@H](CC(=O)O)C(=O)N[C@@H](Cc1ccccc1)C(N)=O [Example 54, Ac-(D)Phe(4-tetrazole)-Met-Gly-Trp-Met-Asp-Phe-NH2] (Ac-[X15]MGWMDF-NH2) |  | 50 |  | 
CSCC[C@H](NC(=O)[C@H](Cc1ccc(-c2nnn[nH]2)cc1)NC(C)=O)C(=O)NCC(=O)N[C@@H](Cc1c[nH]c2ccccc12)C(=O)N[C@@H](CCSC)C(=O)N[C@@H](CC(=O)O)C(=O)N[C@@H](Cc1ccccc1)C(N)=O [Example 55, AcPhe(4-tetrazole)MetGlyTrpMetAspPheNH2] (Ac-[Phe(4-tetrazol-5-yl)]MGWMDF-NH2) |  | 0.51 |  | 
CSCC[C@@H]1NC(=O)[C@H](Cc2c[nH]c3ccccc23)NC(=O)CNC(=O)[C@@H](NC(=O)C(Cc2ccc(CC(=O)O)cc2)NC(C)=O)CCCCNC(=O)C[C@@H](C(=O)N(C)[C@@H](Cc2ccccc2)C(N)=O)NC1=O (stereo partly drawn) [Example 56, Ac-(D,L)Phe(4-CH2 COOH)-Lys-Gly-Trp-Met-Asp-N-methyl-Phe-NH2] (Ac-[X1]KGWMD[NMeF]-NH2; lactam 2-6) | 4650 | 10000 |  | 
CSCC[C@H](NC(=O)C(Cc1cccc(CC(=O)O)c1)NC(C)=O)C(=O)NCC(=O)N[C@@H](Cc1c[nH]c2ccccc12)C(=O)N[C@@H](CCSC)C(=O)N[C@@H](CC(=O)O)C(=O)N[C@@H](Cc1ccccc1)C(N)=O (stereo partly drawn) [Example 58, Ac-(D,L)Phe-(3-CH2 COOH)-Met-Gly-Trp-Met-Asp-Phe-NH2] (Ac-[X12]MGWMDF-NH2) | 23 | 53 |  | 
CSCC[C@H](NC(=O)CCc1ccc(CC(=O)O)cc1)C(=O)NCC(=O)N[C@@H](Cc1c[nH]c2ccccc12)C(=O)N[C@@H](CCSC)C(=O)N[C@@H](CC(=O)O)C(=O)N[C@@H](Cc1ccccc1)C(N)=O [Example 59, Desamino Phe(4-CH2 -COOH)-Met-Gly-Trp-Met-Asp-Phe-NH2] ({Propanoyl(3-(4-HOOCCH2-Ph))}-MGWMDF-NH2) | 57 |  |  | 
CSCC[C@H](NC(=O)C(Cc1ccc(Cc2nn[nH]n2)cc1)NC(C)=O)C(=O)NCC(=O)N[C@@H](Cc1c[nH]c2ccccc12)C(=O)N[C@@H](CCSC)C(=O)N[C@@H](CC(=O)O)C(=O)N[C@@H](Cc1ccccc1)C(N)=O (stereo partly drawn) [Example 60, Ac-(D,L)Phe(4-CH2 tetrazole)-Met-Gly-Trp-Met-Asp-Phe-NH2] (Ac-[X8]MGWMDF-NH2) | 730 | 340 |  | 
CCCC[C@H](NC(=O)C(Cc1ccc(Cc2nn[nH]n2)cc1)NC(C)=O)C(=O)NCC(=O)N[C@@H](Cc1c[nH]c2ccccc12)C(=O)N[C@@H](CCCC)C(=O)N[C@@H](CC(=O)O)C(=O)N(C)[C@@H](Cc1ccccc1)C(N)=O (stereo partly drawn) [Example 63, Ac-(D,L)Phe(4-CH2 -tetrazole)-Nle-Gly-Trp-Nle-Asp-N-methyl-Phe-NH2] (Ac-[X8][Nle]GW[Nle]D[NMeF]-NH2) | 640 | 260 |  | 
CSCC[C@H](NC(=O)CCc1ccc(-c2nnn[nH]2)cc1)C(=O)NCC(=O)N[C@@H](Cc1c[nH]c2ccccc12)C(=O)N[C@@H](CCSC)C(=O)N[C@@H](CC(=O)O)C(=O)N[C@@H](Cc1ccccc1)C(N)=O [Example 67, Desamino-Phe(4-tetrazole)-Met-Gly-Trp-Met-Asp-Phe-NH2] (X16-MGWMDF-NH2) |  | 5.1 |  | 
